Experimental findings from ChEMBL document CHEMBL1681729, “2-aminomethylphenylamine as a novel scaffold for factor Xa inhibitor” (Bioorg Med Chem, 2011) are described below.

Structures are written as SMILES. ≈ marks a conversion by molar mass, not a printed value.

Data set [1] is described as follows: Distribution coefficient, log D of the compound at pH 7.4 by LC-MS. It is filed as physicochemical. Particulars: octanol/water.
The nature of data set [2]: Solubility of the compound in Japanese Pharmacopoeia First Fluid of pH 1.2 by HPLC. It is filed as physicochemical.
Data set [3] in a line: Solubility of the compound in Japanese Pharmacopoeia First Fluid of pH 6.8 by HPLC. It is filed as physicochemical.
Data set [4] addresses Coagulation factor X (Homo sapiens, UniProt P00742). As to the kind of experiment: Inhibition of factor 10a by S2222 chromogenic substrate assay by chromogenic assay.
For data set [5], the system named is Plasma. As to the kind of experiment: Anticoagulant activity in human plasma assessed as concentration required to double prothrombin time. The data set is classed as functional.
The test system of data set [6] is Rattus norvegicus. As to the kind of experiment: Inhibition of factor 10a in overnight fasted Wistar rat plasma at 10 mg/kg, po after 4 hrs by S2222 chromogenic substrate assay. The data set is classed as functional.
For data set [7], the system named is Rattus norvegicus. As to the kind of experiment: Inhibition of factor 10a in overnight fasted Wistar rat plasma at 10 mg/kg, po after 1 hr by S2222 chromogenic substrate assay. It is filed as functional.
Data set [8] deals with Rattus norvegicus. The data set is described as follows: Inhibition of factor 10a in overnight fasted Wistar rat plasma at 10 mg/kg, po after 2 hrs by S2222 chromogenic substrate assay. The data set is classed as functional.
In data set [9] the test system is Rattus norvegicus. As to the kind of experiment: Inhibition of factor 10a in overnight fasted Wistar rat plasma at 10 mg/kg, po after 0.5 hrs by S2222 chromogenic substrate assay. It is filed as functional.
Data set [10] is described as follows: Cmax in serum of cynomolgus monkey at 1 mg/kg, po after 0.5 to 24 hrs by LC/MS/MS coupled with HPLC. The data set is classed as ADME, organism-based, Macaca fascicularis. Set-up: dose 1 mg/kg, route oral.
Data set [11] can be described thus: Tmax in serum of cynomolgus monkey at 1 mg/kg, po after 0.5 to 24 hrs. It is filed as ADME, organism-based, Macaca fascicularis. Details: dose 1 mg/kg, route oral.
Data set [12] is described as follows: AUC (0 to 24 hrs) in serum of cynomolgus monkey at 1 mg/kg, po after 0.5 to 24 hrs. The data set is classed as ADME, organism-based, Macaca fascicularis. Details: time < 24 hr, dose 1 mg/kg, route oral.
Data set [13] in a line: Half life in serum of cynomolgus monkey at 1 mg/kg, po after 0.5 to 24 hrs. It is filed as ADME, organism-based, Macaca fascicularis. Set-up: dose 1 mg/kg, route oral.

Broadly, the logD is lipophilicity at a set pH, counting ionised and neutral species. By solubility is commonly meant the concentration that dissolves in the medium under given conditions. The term IC50 denotes the concentration at which inhibition is half-maximal. One may read the inhibition in vivo as the percentage by which the read-out fell short of the control. One may read the Cmax as the highest concentration seen after dosing. A word on the Tmax: it is the time from dosing to the highest level. In general, AUC(0-t) refers to the area under the concentration-time curve up to a stated or last time point. In general, half-life refers to how long it takes for the measured level to halve.

Chain of Coagulation factor X (P00742 41-179 limits assumed): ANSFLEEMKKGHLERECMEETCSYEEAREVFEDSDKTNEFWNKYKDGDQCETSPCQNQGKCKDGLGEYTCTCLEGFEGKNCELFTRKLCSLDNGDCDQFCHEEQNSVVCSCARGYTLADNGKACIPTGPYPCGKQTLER
Chain of Coagulation factor X (P00742 235-488 limits assumed): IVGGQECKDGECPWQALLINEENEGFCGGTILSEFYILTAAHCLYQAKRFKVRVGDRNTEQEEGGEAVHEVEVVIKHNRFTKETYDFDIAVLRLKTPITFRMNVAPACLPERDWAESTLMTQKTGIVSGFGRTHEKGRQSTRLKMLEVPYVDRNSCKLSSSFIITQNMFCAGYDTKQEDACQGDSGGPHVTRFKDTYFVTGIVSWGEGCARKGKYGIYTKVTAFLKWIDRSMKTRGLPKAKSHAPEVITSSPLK

`CN1CCc2nc(C(=O)Nc3ccccc3CNC(=O)c3ccc(Cl)s3)sc2C1` gave a log distribution coefficient (logD) in data set [1] of 3.3. Moreover, the solubility in data set [2] is 150 µg/mL (≈ 336 µM); in [3], 17 µg/mL (≈ 38 µM).

With `CN1CCc2nc(C(=O)NCCCNC(=O)c3ccc(Cl)s3)sc2C1`, in [4], inhibition was half-maximal at 93 nM (IC50). In addition, the Activity in data set [5] stood at 7.6 µM.

As for `CN1CCc2nc(C(=O)N3CCC(NC(=O)c4ccc(Cl)s4)CC3)sc2C1`, inhibition in data set [4] was half-maximal at 1020 nM (IC50). The Activity in data set [5] is >20 µM.

Regarding `CN1CCc2nc(C(=O)N3CCCC(CNC(=O)c4ccc(Cl)s4)C3)sc2C1` (stereo unspecified), half-maximal inhibition in [4] (IC50) required 6830 nM.

Consider `CN1CCc2nc(C(=O)NCc3ccccc3NC(=O)c3ccc(Cl)s3)sc2C1`, for which, in data set [4], the concentration for half-maximal inhibition (IC50) was determined as 5680 nM.

Molecule `CN1CCc2nc(C(=O)Nc3ncccc3CNC(=O)c3ccc(Cl)s3)sc2C1` showed a log distribution coefficient (logD) in data set [1] of 2.2. For the same molecule, it took 18 nM to reach half-maximal inhibition in [4] (IC50). The solubility in data set [2] worked out at 860 µg/mL (≈ 1920 µM); in [3], 120 µg/mL (≈ 268 µM). In addition, the Activity in data set [5] was 1.5 µM.

In turn, `CN1CCc2nc(C(=O)Nc3cnccc3CNC(=O)c3ccc(Cl)s3)sc2C1` had a logD in [1] of 2.6. In data set [4], this molecule displayed an IC50 of 13 nM. For the same molecule, the solubility in data set [2] and in data set [3] was > 590 µg/mL in each case. For the same molecule, in data set [5], the Activity was found to be 1.8 µM.

As for `CN1CCc2nc(C(=O)Nc3ccncc3CNC(=O)c3ccc(Cl)s3)sc2C1`, the logD in data set [1] amounted to 3.3. Moreover, in data set [4], 12 nM corresponded to half-maximal inhibition (IC50). Further, the solubility is 880 µg/mL (≈ 1960 µM) in data set [2] and > 4.9 µg/mL in [3]. For the same molecule, the Activity in [5] was 1.4 µM.

Take `CN1CCc2nc(C(=O)Nc3cccnc3CNC(=O)c3ccc(Cl)s3)sc2C1`: the logD in data set [1] was found to be 2.8. Further, in [4], the IC50 stood at 11 nM. The solubility in data set [2] turned out to be 890 µg/mL (≈ 1990 µM); in data set [3], 67 µg/mL (≈ 150 µM). Moreover, in data set [5], the Activity turned out to be 1 µM.

As for `CN1CCc2nc(C(=O)Nc3ccccc3CNC(=O)c3ccc(Cl)cn3)sc2C1`, the pH-dependent lipophilicity (logD) in data set [1] was determined as 2.8. Moreover, half-maximal inhibition in [4] (IC50) required 2480 nM. Besides, the solubility in data set [2] was 350 µg/mL (≈ 792 µM); in data set [3], 380 µg/mL (≈ 860 µM).

`CN1CCc2nc(C(=O)Nc3ccccc3CNC(=O)c3ccc(Cl)cc3)sc2C1` returned a logD in data set [1] of 3.4. This molecule came in with an IC50 in data set [4] of 642 nM. Besides, the solubility in data set [2] amounted to 560 µg/mL (≈ 1270 µM); in data set [3] it was 42 µg/mL (≈ 95.2 µM).

Consider `CN1CCc2nc(C(=O)Nc3ccccc3CNC(=O)c3cc(Cl)ccn3)sc2C1`, for which, in data set [1], the log distribution coefficient (logD) was determined as 2.7. Also, half-maximal inhibition in data set [4] (IC50) was put at 4150 nM. Also, the solubility in data set [2] stood at 760 µg/mL (≈ 1720 µM); in [3], 150 µg/mL (≈ 339 µM).

The molecule `CN1CCc2nc(C(=O)Nc3ccccc3CNC(=O)c3cccc(Cl)c3)sc2C1` showed a log distribution coefficient (logD) in data set [1] of 3.3. In addition, the IC50 in data set [4] turned out to be 1620 nM. Besides, the solubility in data set [2] came to 680 µg/mL (≈ 1540 µM); in data set [3], 160 µg/mL (≈ 363 µM).

In turn, `CN1CCc2nc(C(=O)Nc3ccccc3CNC(=O)c3cc(Cl)c[nH]3)sc2C1` had a log distribution coefficient (logD) in data set [1] of 3.2. The molecule also registered an IC50 in data set [4] of 48 nM. Moreover, the solubility in [2] came to 690 µg/mL (≈ 1600 µM); in data set [3], 170 µg/mL (≈ 395 µM). In addition, the Activity in [5] was 2.2 µM.

In the case of `CN1CCc2nc(C(=O)Nc3ccccc3CNC(=O)c3ccc(Cl)[nH]3)sc2C1`, the pH-dependent lipophilicity (logD) in [1] was 3.1. Further, the IC50 in [4] is > 10000 nM. The values for the solubility in data set [2] and in data set [3] were > 810 µg/mL and 33 µg/mL (≈ 76.8 µM), respectively.

As for `CN1CCc2nc(C(=O)Nc3ccccc3CC(=O)Nc3ccc(Cl)cn3)sc2C1`, the logD in data set [1] was 2.8. This molecule returned an IC50 in data set [4] of 623 nM. For the same molecule, the solubility stood at 600 µg/mL (≈ 1360 µM) in data set [2] and 100 µg/mL (≈ 226 µM) in data set [3]. Besides, the Activity in data set [5] was determined as 17 µM.

As for `CN1CCc2nc(NC(=O)c3ccccc3CNC(=O)c3ccc(Cl)s3)sc2C1`, the log distribution coefficient (logD) in data set [1] was 2.9. In [4], this molecule showed a half-inhibitory concentration (IC50) of 59 nM. The solubility in [2] is > 640 µg/mL; in data set [3] it was 100 µg/mL (≈ 224 µM). Moreover, the Activity in [5] is 2.3 µM.

In turn, `O=C(Nc1ccccc1CNC(=O)c1ccc(Cl)s1)c1ccc(N2CCOCC2=O)cc1` displayed a logD in data set [1] of 2.8. In addition, the IC50 in data set [4] amounted to 4.1 nM. Besides, the solubility in data set [2] and in data set [3] was < 2.3 µg/mL each time. Further, the Activity in data set [5] was found to be 0.91 µM. Besides, the inhibition in vivo at 10 mg/kg is 12.7% in [6], 14.1% in data set [7], 12.7% in data set [8] and 17.1% in data set [9].

In the case of `O=C(NCc1ccccc1C(=O)Nc1ccc(N2CCOCC2=O)cc1)c1ccc(Cl)s1`, the log distribution coefficient (logD) in data set [1] amounted to 2.5. Further, the 50% inhibitory concentration (IC50) in data set [4] came to 9 nM. For the same molecule, the values for the solubility in data set [2] and in data set [3] were 140 µg/mL (≈ 298 µM) and 120 µg/mL (≈ 255 µM), respectively. The Activity in data set [5] amounted to 1 µM.

`CC(C)N1CCC(C(=O)Nc2ccccc2CNC(=O)c2ccc(Cl)s2)CC1` came in with a logD in [1] of 1.5. Also, the IC50 in data set [4] is 204 nM. For the same molecule, the solubility in data set [2] and in [3] was > 680 µg/mL in each case. Further, the Activity in [5] turned out to be 5.2 µM.

On to `CC(C)N1CCC(NC(=O)c2ccccc2CNC(=O)c2ccc(Cl)s2)CC1`, for which, in data set [1], the logD came out at 1.4. The IC50 in [4] amounted to 1930 nM. For the same molecule, the solubility in [2] is 810 µg/mL (≈ 1930 µM); in [3] it was > 820 µg/mL.

`CN1CCc2nc(C(=O)Nc3ccccc3CNC(=O)c3ccc(Cl)s3)sc2C1.Cl` came in with a Cmax in data set [10] of 83.7 ng/mL. Further, the time of peak concentration (Tmax) in [11] turned out to be 0.5 h. In data set [12], this molecule returned an AUC(0-t) at 24 h of 697 ng·h/mL. This molecule showed a half-life in [13] of 3.8 h.

Regarding `CN1CCc2nc(C(=O)N[C@@H]3CCCC[C@H]3CNC(=O)c3ccc(Cl)s3)sc2C1` (relative stereo), the logD in data set [1] came out at 3.5. For the same molecule, in [4], the IC50 came to 439 nM. In addition, the solubility in data set [2] is > 600 µg/mL; in data set [3] it was 440 µg/mL (≈ 971 µM). In addition, in data set [5], the Activity was 17 µM.

For the molecule `CN1CCc2nc(C(=O)N[C@@H]3CCCC[C@@H]3CNC(=O)c3ccc(Cl)s3)sc2C1` (relative stereo), in [1], the pH-dependent lipophilicity (logD) turned out to be 3.7. Moreover, half-maximal inhibition in [4] (IC50) required 27 nM. Further, the solubility in [2] was 800 µg/mL (≈ 1770 µM); in [3] it was 290 µg/mL (≈ 640 µM). In data set [5], the Activity worked out at 3.4 µM.
